# Results taken from patent publication US20250206825A1, “COMPOSITION FOR PREVENTING OR TREATING MYOCARDITIS, COMPRISING VLA-4 INHIBITOR” (OSAKA UNIVERSITY, priority 2022, published 2025).
# What was measured:
# MRL-Pdcd1^−/− mice = assay: AJM300 mixed diet in myocarditis model (survival, echocardiography); type: in vivo, mouse
# Procedure: […] MRL-Pdcd1^−/− mice were divided into two groups: AJM300 (−) group (n=13) not to be administered with the AJM300 and AJM300 (+) group (n=12) to be administered with the AJM300.
# The AJM300 group (+) was administered with a mixed diet containing 1% of AJM300 from 2 weeks of age until death.
# At 28 days of age, 9 mice in the AJM300 (−) group and 10 mice in the AJM300 (+) group were evaluated for the cardiac function by the echocardiography and then euthanized to collect heart and blood samples.
# [1] = tested on: cardiac fibroblasts and splenic monocytes; assay: Adhesion experiment of monocytes with cardiac fibroblasts in vitro (TNFα stimulation); type: cell-based, neonatal rat (fibroblasts), mouse (monocytes); conditions: stimulation with TNFα for 24 hours; monocytes incubated 30 min at 37° C.; In Cell Analyzer 6000
# Procedure: (§1) For the cardiac fibroblasts, fibroblasts isolated after cell dispersion of a heart harvested from a neonatal rat with Collagenase type 2 (Worthington Biochemical Corporation, LS004176) were cultured in a 96-well plate. For splenic monocytes, a spleen was harvested from a wild-type mouse and homogenized, and then the monocyte fraction was collected by specific gravity separation using Optiprep (Serumwerk Bernburg, 1893). For the adhesion experiment, the cardiac fibroblasts were cultured in the 96-well plate for 48 hours, and then medium was replaced with TNFα+/− and cultured for another 24 hours. The splenic monocytes subjected to fluorescent staining (Hoechst 33342 (DOJINDO LABORATORIES, 341-07901) or Cytored (DOJINDO LABORATORIES, 342-08531)) were added and incubated at 37° C. for 30 min. After washing 6 times with PBS (−) to remove non-adherent monocytes, and then adherent monocytes were counted on In Cell Analyzer 6000 (GE Healthcare Life Sciences).
# (§2) The TNFα (Peprotech, 300-01A) was added to the wells at a final concentration of 5 to 15 ng/ml.
# Vcam-1 = assay: Induction of Vcam-1 by TNFα in cardiac fibroblasts (Western blotting); type: cell-based, rat; conditions: 12 hours and 24 hours after addition of TNFα versus 0 hour, TNFα 5 to 15 ng/ml
# Procedure: as §1, §2
# Induction of the Vcam-1 by the TNFα was determined by Western blotting. Anti-Vcam1 antibody EPR5047 (Abcam, ab134047) was used as a primary antibody for the Western blotting. An HRP-conjugated anti-Rabbit antibody was used for detection, and Chemi-Lumi One L (Nacalai tesque, 07880-70) was used as a luminescence reagent. […]
# [2] = 1% AJM300 mixed diet, 28 days of age, versus AJM300 (−) group, t-test p=0.0231
Molecule,heart rate (echocardiography) (MRL-Pdcd1^−/− mice; [2]),left ventricular contractile performance: % Fractional Shortening (MRL-Pdcd1^−/− mice; [2]),"survival time (Kaplan-Meier) versus AJM300 (−) group (MRL-Pdcd1^−/− mice; mixed diet containing 1% of AJM300 from 2 weeks of age until death, Log-rank test p=0.0022)",adhesion between the cardiac fibroblasts and the monocytes [1],expression of the Vcam-1 (Western blotting) (Vcam-1)
"COC(=O)[C@H](Cc1ccc(-n2c(=O)c3cc(N(C)C)ccc3n(C)c2=O)cc1)NC(=O)c1c(Cl)cccc1Cl [AJM300, carotegrast methyl]",significantly ameliorated bradycardia,significantly improved left ventricular contractile performance,significantly prolonged,–,–
TNFα,–,–,–,strengthened,increased more
